Data published in patent publication US9079901B2, “Fused heterocyclic compounds as ion channel modulators” (Gilead Sciences, Inc., priority 2010, dated 2015).

The molecules below were run against wild-type human cardiac sodium channel, hNav1.5 (late sodium current) in HEK293 cells (Homo sapiens, UniProt Q14524) (assay: Late INa screening assay (automated whole-cell patch clamp, PatchXpress)). Conditions: HEK293, compound at 1 μM; late INa generated with 10 μM Tefluthrin (or 50 nM ATX II); HEK293 hNav1.5; read-out: Late INa 1 μM (percent block of late INa).
Sequence of wild-type human cardiac sodium channel, hNav1.5 (late sodium current) in HEK293 cells (Q14524 whole entry): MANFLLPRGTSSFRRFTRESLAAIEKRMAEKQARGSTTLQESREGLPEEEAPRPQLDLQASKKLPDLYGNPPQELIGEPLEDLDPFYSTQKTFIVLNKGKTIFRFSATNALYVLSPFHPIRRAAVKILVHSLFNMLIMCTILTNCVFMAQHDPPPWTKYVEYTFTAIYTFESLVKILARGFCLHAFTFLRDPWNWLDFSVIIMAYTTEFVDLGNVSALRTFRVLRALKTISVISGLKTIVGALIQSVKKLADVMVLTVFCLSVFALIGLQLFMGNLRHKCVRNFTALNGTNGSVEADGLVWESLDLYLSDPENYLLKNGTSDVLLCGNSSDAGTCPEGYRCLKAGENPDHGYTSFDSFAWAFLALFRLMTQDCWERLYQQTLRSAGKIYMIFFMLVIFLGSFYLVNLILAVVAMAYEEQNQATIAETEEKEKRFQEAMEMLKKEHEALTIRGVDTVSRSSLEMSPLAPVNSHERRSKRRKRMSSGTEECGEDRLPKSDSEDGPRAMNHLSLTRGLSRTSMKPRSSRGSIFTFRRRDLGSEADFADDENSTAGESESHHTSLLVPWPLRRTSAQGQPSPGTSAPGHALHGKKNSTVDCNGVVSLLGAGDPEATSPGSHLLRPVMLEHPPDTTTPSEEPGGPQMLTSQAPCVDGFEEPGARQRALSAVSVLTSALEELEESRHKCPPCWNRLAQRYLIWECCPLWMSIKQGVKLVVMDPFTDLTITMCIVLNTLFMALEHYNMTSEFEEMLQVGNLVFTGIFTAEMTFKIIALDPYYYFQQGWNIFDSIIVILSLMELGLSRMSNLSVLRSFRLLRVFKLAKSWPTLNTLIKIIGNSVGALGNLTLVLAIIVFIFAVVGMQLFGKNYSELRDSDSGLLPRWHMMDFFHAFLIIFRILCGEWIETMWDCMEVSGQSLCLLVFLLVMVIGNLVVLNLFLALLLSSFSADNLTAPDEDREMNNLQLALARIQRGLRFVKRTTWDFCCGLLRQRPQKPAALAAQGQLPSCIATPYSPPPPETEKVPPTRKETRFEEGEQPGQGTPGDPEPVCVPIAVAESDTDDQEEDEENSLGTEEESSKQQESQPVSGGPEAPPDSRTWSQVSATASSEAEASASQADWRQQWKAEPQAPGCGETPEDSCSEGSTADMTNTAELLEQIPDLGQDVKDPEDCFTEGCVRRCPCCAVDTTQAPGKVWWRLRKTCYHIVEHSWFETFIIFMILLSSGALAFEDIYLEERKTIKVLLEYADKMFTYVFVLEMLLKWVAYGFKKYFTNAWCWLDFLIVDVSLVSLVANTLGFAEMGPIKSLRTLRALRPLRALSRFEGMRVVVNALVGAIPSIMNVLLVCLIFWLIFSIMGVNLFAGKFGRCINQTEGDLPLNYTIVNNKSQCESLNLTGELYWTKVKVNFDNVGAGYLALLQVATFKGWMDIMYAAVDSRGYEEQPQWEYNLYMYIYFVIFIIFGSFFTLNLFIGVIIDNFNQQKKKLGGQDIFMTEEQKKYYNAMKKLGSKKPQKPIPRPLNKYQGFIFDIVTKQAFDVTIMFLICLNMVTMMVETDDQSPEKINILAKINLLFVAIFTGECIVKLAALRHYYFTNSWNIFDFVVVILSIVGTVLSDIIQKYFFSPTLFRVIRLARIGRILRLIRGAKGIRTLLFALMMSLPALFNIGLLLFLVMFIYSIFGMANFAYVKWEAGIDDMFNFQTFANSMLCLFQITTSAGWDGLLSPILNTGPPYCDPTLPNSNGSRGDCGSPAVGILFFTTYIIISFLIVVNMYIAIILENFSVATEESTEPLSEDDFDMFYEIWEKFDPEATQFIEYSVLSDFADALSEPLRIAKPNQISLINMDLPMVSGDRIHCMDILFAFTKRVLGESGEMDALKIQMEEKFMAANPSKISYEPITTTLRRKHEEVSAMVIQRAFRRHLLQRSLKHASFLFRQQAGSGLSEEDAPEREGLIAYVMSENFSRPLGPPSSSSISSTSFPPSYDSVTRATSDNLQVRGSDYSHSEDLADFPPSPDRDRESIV
Format: cell-based
Experimental: The late sodium current (Late INa) and peak sodium current (Peak INa) assays are performed on an automated electrophysiology platform, PatchXpress 7000A (MDS Analytical Technologies, Sunnyvale, Calif.), which uses the whole cell patch clamp technique to measure currents through the cell membrane of up to 16 cells at a time. The assay uses an HEK293 (human embryonic kidney) cell line heterologously expressing the wild-type human cardiac sodium channel, hNav1.5, purchased from Millipore (Billerica, Mass.). No beta subunits were coexpressed with the Na channel alpha subunit. Cells are maintained with standard tissue culture procedures and stable channel expression is maintained with 400 μg/ml Geneticin in the culture medium. Cells isolated for use on PatchXpress are incubated for 5 minutes in Versene 1× and then for 2 minutes in 0.0125% Trypsin-EDTA (both at 37° C.) to ensure that 80-90% of the cells are single and not part of a cell cluster. Experiments are carried out at 24-27° C.
For both the Late INa and Peak INa assays, series resistance compensation is set to 50% and whole-cell compensation is performed automatically. Currents are low-pass filtered at 10 kHz and digitized at 31.25 kHz. Currents through open sodium channels are automatically recorded and stored in the DataXpress2 database (MDS Analytical Technologies, Sunnyvale, Calif.). Analysis is performed using DataXpress2 analysis software and data are compiled in Excel.
Compound stocks are routinely made in glass vials to 10 mM in dimethyl sulfoxide (DMSO). In some cases, when compounds are not soluble in DMSO, they are made in 100% ethanol. Stocks are sonicated as necessary. The extracellular solution for screening Late INa is composed of: 140 mM NaCl, 4 mM KCl, 1.8 mM CaCl2, 0.75 mM MgCl2, and 5 mM HEPES with pH adjusted to 7.4 using NaOH. The extracellular solution for screening Peak INa is composed of: 20 mM NaCl, 120 mM N-methyl-D glucamine, 4 mM KCl, 1.8 mM CaCl2, 0.75 mM MgCl2, and 5 mM HEPES with pH adjusted to 7.4 using HCl. The intracellular solution used to perfuse the inside of the cells for both the Late INa and Peak INa assays contains: 120 mM CsF, 20 mM CsCl, 5 mM EGTA, 5 mM HEPES and pH adjusted to 7.4 with CsOH. Compounds are diluted in extracellular solution to 10 μM in glass vials and then transferred to glass well plates before robotic addition to the cells. The 0Na extracellular solution used at the end of each experiment for the Late INa and Peak INa assays to measure baseline current contains: 140 mM N-methyl-D-glucamine; 4 mM KCl; 1.8 mM CaCl2; 0.75 mM MgCl2; 5 mM HEPES and pH was adjusted to 7.4 with HCl.
For the Late INa assay, sodium channels are activated every 10 seconds (0.1 Hz) by depolarizing the cell membrane to −20 mV for 250 milliseconds (ms) from a holding potential of −120 mV. In response to a −20 mV voltage step, typical Nav1.5 sodium currents activate rapidly to a peak negative current and then inactivate nearly completely within 3-4 ms.
All compounds are tested to determine their activity in blocking the late sodium current. Late INa current is generated by adding 10 μM Tefluthrin (pyrethroid) to the extracellular solution while recording Na currents. For some experiments, 50 nM ATX II (sea anemone toxin), another late INa activator, was used to generate the late component. Both activators generate late components that are large enough that block of the late component by compounds can be measured easily. For the purposes of the screening, late INa is defined as the mean current between 225 ms and 250 ms after stepping to −20 mV to activate Na channels. After establishing the whole cell recording configuration, late INa activators are added to each well 4 times over a 16-17 minute period so that the late component of the Na current reaches a stable value. Compounds are then added (typically at 10 μM), in the presence of late INa activator, with 3 additions over the course of 7 or 8 minutes. […]
Work on `Cc1noc(Cn2nc3ccc(-c4ccc(OC(F)(F)F)cc4)cn3c2=O)n1` [compound 1, 2-((3-methyl-1,2,4-oxadiazol-5-yl)methyl)-6-(4-(trifluoromethoxy)phenyl)-[1,2,4]triazolo[4,3-a]pyridin-3(2H)-one] yielded an inhibition at 1 µM of 27.5%.
With `Cc1nonc1Cn1nc2ccc(-c3ccc(OC(F)(F)F)cc3)cn2c1=O` [compound 2, 2-((4-methyl-1,2,5-oxadiazol-3-yl)methyl)-6-(4-(trifluoromethoxy)phenyl)-[1,2,4]triazolo[4,3-a]pyridin-3(2H)-one] the inhibition at 1 µM was 41.3%.
With `Cc1nc(Cn2nc3ccc(-c4ccc(OC(F)(F)F)cc4)cn3c2=O)no1` [compound 3, 2-((5-methyl-1,2,4-oxadiazol-3-yl)methyl)-6-(4-(trifluoromethoxy)phenyl)-[1,2,4]triazolo[4,3-a]pyridin-3(2H)-one] the inhibition at 1 µM was 29.3%.
Molecule `COc1ccccc1OCC(O)Cn1nc2ccc(-c3ccc(OC(F)(F)F)cc3)cn2c1=O` (stereo not drawn) [compound 4, 2-(2-hydroxy-3-(2-methoxyphenoxy)propyl)-6-(4-(trifluoromethoxy)phenyl)-[1,2,4]triazolo[4,3-a]pyridin-3(2H)-one] has an inhibition at 1 µM of 20.8%.
`Cc1cc(Cn2nc3ccc(-c4ccc(OC(F)(F)F)cc4)cn3c2=O)no1` [compound 5, 2-((5-methylisoxazol-3-yl)methyl)-6-(4-(trifluoromethoxy)phenyl)-[1,2,4]triazolo[4,3-a]pyridin-3(2H)-one] showed an inhibition at 1 µM of 28.3%.
`Cc1noc(C)c1Cn1nc2ccc(-c3ccc(OC(F)(F)F)cc3)cn2c1=O` [compound 6, 2-((3,5-dimethylisoxazol-4-yl)methyl)-6-(4-(trifluoromethoxy)phenyl)-[1,2,4]triazolo[4,3-a]pyridin-3(2H)-one] gave an inhibition at 1 µM of 15.2%.
In the case of `O=c1n(Cc2noc(-c3cccc(C(F)(F)F)c3)n2)nc2ccc(-c3ccc(OC(F)(F)F)cc3)cn12` [compound 7, 6-(4-(trifluoromethoxy)phenyl)-2-((5-(3-(trifluoromethyl)phenyl)-1,2,4-oxadiazol-3-yl)methyl)-[1,2,4]triazolo[4,3-a]pyridin-3(2H)-one], the inhibition at 1 µM is reported as 24.5%.
Molecule `Cc1nc(-c2cccc(Cn3nc4ccc(-c5ccc(OC(F)(F)F)cc5)cn4c3=O)c2)no1` [compound 8, 2-(3-(5-methyl-1,2,4-oxadiazol-3-yl)benzyl)-6-(4-(trifluoromethoxy)phenyl)-[1,2,4]triazolo[4,3-a]pyridin-3(2H)-one] has an inhibition at 1 µM of 16.3%.
In the case of `O=c1n(Cc2nc(-c3c(Cl)cccc3Cl)no2)nc2ccc(-c3ccc(OC(F)(F)F)cc3)cn12` [compound 9, 2-((3-(2,6-dichlorophenyl)-1,2,4-oxadiazol-5-yl)methyl)-6-(4-(trifluoromethoxy)phenyl)-[1,2,4]triazolo[4,3-a]pyridin-3(2H)-one], the inhibition at 1 µM is reported as 29.8%.
With `O=c1n(Cc2ccc3nonc3c2)nc2ccc(-c3ccc(OC(F)(F)F)cc3)cn12` [compound 10, 2-(benzo[c][1,2,5]oxadiazol-5-ylmethyl)-6-(4-(trifluoromethoxy)phenyl)-[1,2,4]triazolo[4,3-a]pyridin-3(2H)-one] the inhibition at 1 µM was 16.9%.
`COc1ccccc1-c1nc(Cn2nc3ccc(-c4ccc(OC(F)(F)F)cc4)cn3c2=O)no1` [compound 11, 2-((5-(2-methoxyphenyl)-1,2,4-oxadiazol-3-yl)methyl)-6-(4-(trifluoromethoxy)phenyl)-[1,2,4]triazolo[4,3-a]pyridin-3(2H)-one] showed an inhibition at 1 µM of 22%.
`O=c1n(Cc2ccc(OC(F)(F)F)cc2)nc2ccc(-c3ccc(OC(F)(F)F)cc3)cn12` [compound 12, 2-(4-(trifluoromethoxy)benzyl)-6-(4-(trifluoromethoxy)phenyl)-[1,2,4]triazolo[4,3-a]pyridin-3(2H)-one] was tested, and the inhibition at 1 µM was 11.1%.
`O=c1n(Cc2ccc3ccccc3n2)nc2ccc(-c3ccc(OC(F)(F)F)cc3)cn12` [compound 13, 2-(quinolin-2-ylmethyl)-6-(4-(trifluoromethoxy)phenyl)-[1,2,4]triazolo[4,3-a]pyridin-3(2H)-one] showed an inhibition at 1 µM of 24.6%.
Work on `CCc1noc(C(C)n2nc3ccc(-c4ccc(OC(F)(F)F)cc4)cn3c2=O)n1` (stereo not drawn) [compound 14, 2-(1-(3-ethyl-1,2,4-oxadiazol-5-yl)ethyl)-6-(4-(trifluoromethoxy)phenyl)-[1,2,4]triazolo[4,3-a]pyridin-3(2H)-one] yielded an inhibition at 1 µM of 12%.
`O=c1n(Cc2ccccn2)nc2ccc(-c3ccc(OC(F)(F)F)cc3)cn12` [compound 16, 2-(pyridin-2-ylmethyl)-6-(4-(trifluoromethoxy)phenyl)-[1,2,4]triazolo[4,3-a]pyridin-3(2H)-one] showed an inhibition at 1 µM of 11.5%.
`O=c1n(Cc2nonc2-c2ccccc2)nc2ccc(-c3ccc(OC(F)(F)F)cc3)cn12` [compound 17, 2-((4-phenyl-1,2,5-oxadiazol-3-yl)methyl)-6-(4-(trifluoromethoxy)phenyl)-[1,2,4]triazolo[4,3-a]pyridin-3(2H)-one] gave an inhibition at 1 µM of 18.4%.
`Cc1nnc(Cn2nc3ccc(-c4ccc(OC(F)(F)F)cc4)cn3c2=O)o1` [compound 18, 2-((5-methyl-1,3,4-oxadiazol-2-yl)methyl)-6-(4-(trifluoromethoxy)phenyl)-[1,2,4]triazolo[4,3-a]pyridin-3(2H)-one] was tested, and the inhibition at 1 µM was 11.5%.
`O=c1n(Cc2ncco2)nc2ccc(-c3ccc(OC(F)(F)F)cc3)cn12` [compound 19, 2-(oxazol-2-ylmethyl)-6-(4-(trifluoromethoxy)phenyl)-[1,2,4]triazolo[4,3-a]pyridin-3(2H)-one] gave an inhibition at 1 µM of 18.1%.
For `O=c1n(Cc2nc3ccccc3s2)nc2ccc(-c3ccc(OC(F)(F)F)cc3)cn12` [compound 20, 2-(benzo[d]thiazol-2-ylmethyl)-6-(4-(trifluoromethoxy)phenyl)-[1,2,4]triazolo[4,3-a]pyridin-3(2H)-one], the inhibition at 1 µM was 17.4%.
In the case of `Cc1oc(-c2ccccc2)nc1Cn1nc2ccc(-c3ccc(OC(F)(F)F)cc3)cn2c1=O` [compound 21, 2-((5-methyl-2-phenyloxazol-4-yl)methyl)-6-(4-(trifluoromethoxy)phenyl)-[1,2,4]triazolo[4,3-a]pyridin-3(2H)-one], the inhibition at 1 µM is reported as 11%.
`Cc1nc(Cn2nc3ccc(-c4ccc(OC(F)(F)F)cc4)cn3c2=O)oc1C` [compound 22, 2-((4,5-dimethyloxazol-2-yl)methyl)-6-(4-(trifluoromethoxy)phenyl)-[1,2,4]triazolo[4,3-a]pyridin-3(2H)-one] showed an inhibition at 1 µM of 29.4%.
For `COc1ccccc1OCC(Cn1nc2ccc(-c3ccc(OC(F)(F)F)cc3)cn2c1=O)OC` (stereo not drawn) [compound 23, 2-(2-methoxy-3-(2-methoxyphenoxy)propyl)-6-(4-(trifluoromethoxy)phenyl)-[1,2,4]triazolo[4,3-a]pyridin-3(2H)-one], the inhibition at 1 µM was 55.1%.
In the case of `O=c1n(CCCOc2ccccc2)nc2ccc(-c3ccc(OC(F)(F)F)cc3)cn12` [compound 24, 2-(3-phenoxypropyl)-6-(4-(trifluoromethoxy)phenyl)-[1,2,4]triazolo[4,3-a]pyridin-3(2H)-one], the inhibition at 1 µM is reported as 25%.

Same assay, conditions: compound at 1 μM; late INa generated with 10 μM Tefluthrin (or 50 nM ATX II); HEK293 hNav1.5
`CCc1noc(Cn2nc3ccc(-c4ccc(OC(F)(F)F)cc4)cn3c2=O)n1` [compound 15, 2-((3-ethyl-1,2,4-oxadiazol-5-yl)methyl)-6-(4-(trifluoromethoxy)phenyl)-[1,2,4]triazolo[4,3-a]pyridin-3(2H)-one] was tested, and the “Late INa 1 μM (percent block of late INa)” value was 13.5253%.
